{
  "source": "patent US6410588B1",
  "about": "“Use of cannabinoids as anti-inflammatory agents” (priority 1998, dated 2002)",
  "key": {"[1]": {"system": "Thioglycollate induced macrophages (Mφ)", "assay": "viability of macrophages cultured with CBD", "type": "cell-based, mouse", "conditions": "8 μg/ml CBD; after 48 hr"}, "IL-1β release": {"system": "IL-1β release", "assay": "IL-1β release by LPS-stimulated human PBMC", "type": "cell-based", "conditions": "for IL-1β: LPS 10 ng/ml 24 hours, mean ± SEM", "protocol": "(§1) CBD was dissolved in ethanol/DMSO.\n(§2) Peripheral blood mononuclear cells (PBMC) were isolated from the whole blood of healthy donors by Ficoll Hypaque gradient. […] After this 6 hour pretreatment period, the cells were stimulated with either LPS from Salmonella typhimirium, 10 ng/ml, for 24 hours (for TNF and IL-1β) or with PHA, 5 μg/ml, for 72 hours (for IFNγ) Viability of the PBMC was assessed with the MTT test.\n(§3) Human PBMC were cultured and stimulated with or without CBD, as described in Materials and Methods. The stimulus for TNF and IL-1 production was LPS, the stimulus for IFNγ production was PHA. The results are the mean of triplicate wells±SEM. ND=not done."}, "IFNγ production": {"system": "IFNγ production", "assay": "IFNγ release by PHA-stimulated human PBMC", "type": "cell-based", "conditions": "PHA 5 μg/ml 72 hours, mean ± SEM", "protocol": "as §1, §2, §3"}, "[2]": {"system": "collagen induced arthritis (CIA)", "protocol": "Bovine type II collagen (CII) was purified from hyaline cartilage, as described [Williams, 1992# 18]. Male DBA/1 mice (8-12 weeks old) were immunized with 100 μg of CII emulsified in complete Freund's adjuvant CFA (Difco, Detroit, Mich.) by intradermal injection at the base of the tail. From day 15 after immunization onwards, mice were examined daily for onset of CIA using two clinical parameters: paw swelling and clinical score [Williams, PNAS, Vol. 89, pages 97848]. Paw swelling was assessed by measuring the thickness of the affected hind paws with 0-10 mm callipers (Kroeplin, Schluchtern, Germany). For the clinical score, 0=normal; 1=slight swelling and erythema; 2=pronounced edema; 3=joint rigidity. Each limb was graded, resulting in a maximal clinical score of 12 per animal. The arthritis was monitored over 10 days, after which the mice were sacrificed.\nMice injected with vehicle alone (ethanolcremophor in saline) served as controls (n=23)."}, "[3]": {"system": "spleen cells (splenocytes)", "assay": "mitogen-induced cell proliferation of spleen cells", "type": "cell-based, mouse (BALB/c, C57BL/6)", "protocol": "Cultures were pulsed with ^3H-thymidine and harvested 6 hours later.\nFemale mice (aged 8-12 weeks) of strains C57BL/6 (B6, H-2^b) and BALB/c (H-2^d) were purchased from Harlan, Jerusalem, and maintained under specific pathogen-free (SPF) conditions in the animal facilities of the Hebrew University Medical School, Jerusalem, in accordance with the Hebrew University guidelines, DMEM (Biological Industries, Beit Haemek. Israel) was supplemented with 1 mM sodium pyruvate, 10 mM HEPES buffer, 0.5 mM asparagine-HCl, 0.03 mM filic acid, 0.5 mM L-aspartic acid, 5×10^−5M 2-mercaptoethanol, 2 mM glutamine, antibotics and 10% FCS (complete DMEM).\nSpleen cells, at a final concentration of 5×10^6 cells/ml, were cultured in triplicate wells of flat-bottom microtiter plates (Nunc, Denmark) in medium alone, 2.5 μg/ml concanavalin A (ConA. Biomakor, Israel) or 50 μ/ml lipopolysaccharide (LPS, Difco). The final volume was 200 μl/well. Following two days of incubation at 37° C., in an 8% CO2-in-air incubator (as in all other procedures described here), 1 μCi of ^3H-thymidine was added to each well. Cells were harvested 6 h later, with a Tomtec (USA) cell harvester and counted in a MicroBeta scintillation counter (Wallac, Finland)."}, "spleen cells": {"system": "spleen cells", "assay": "mixed leukocyte reaction (MLR)", "type": "cell-based, mouse (BALB/c)", "conditions": "above 4 μg/ml CBD", "protocol": "Cultures were pulsed with ^3H-thymidine and harvested 18 hours later.\nSpleen cells (1×10^6/well) were co-cultured in triplicate wells of flat-bottom microtiter plates (Nunc), with an equal number of irradiated ([…]) syngeneic or allogeneic splenocytes in a final volume of 200 μl/well. After 3-days incubation, the cells were labelled with ^3H-thymidine (1 μCi/well) and harvested, following an additional incubation of 18 h, as described above."}, "[4]": {"system": "51Cr-labeled P815 lymphoma cell line", "assay": "cell mediated cytotoxicity after mixed leukocyte culture", "type": "cell-based, mouse", "protocol": "Cells harvested from MLC were tested for their cytotoxic activity against ^51Cr-labeled P815 (H-2^d)lymphoma cell line. Cytotoxic activity is given in LU/10^6cells (see Materials and Methods).\nMHC-restricted CTL were activated in MLC by co-culturing 2.5×10^6 responding spleen cells for 5 days with an equal number of irradiated (25 Gy) allogeneic splenocytes in 2 ml/well of complete DMEM in 24-well plates (Costar).\nCytotoxic assays were performed as described previously (Leshem et al, 1999). Briefly, effector cells were serially diluted (threefold) in triplicate wells of conical-bottom microplates (Nunc) and mixed with washed ^51Cr-labeled target cells in a final 200 μl volume to make 4-6 effector target cell ratios. Microplates were centrifuged (70×g, 2 min.) and incubated for 4 h. They were then centrifuged at 200×g for 5 min. and the supernatants (150 μl) were counted in an automatic […] (LKB-Wallac, Finland). Percent of specific cytotoxic activity was calculated according to the formula: [(experimental cpm−background cpm)/(maximal cpm−background cpm)×100]. Lytic units (LU), were drawn from the cytotoxicity measured at 4-6 E:T cell ratios. One 1 LU is defined as the number of effector cells causing lysis of 30% target cells (Leshem and Brass, 1998)."}, "IL-8": {"system": "IL-8", "assay": "human rheumatoid synovial cell IL-8 production (ELISA)", "type": "cell-based", "conditions": "for IL-8, mean: 48 hours culture", "protocol": "(§4) Synovial membrane tissue was obtained from a patient fulfilling the revised American College of Rheumatology criteria for rheumatoid arthritis who underwent joint replacement surgery. Synovial cell cultures were prepared as described. Briefly, synovial membrane tissue was digested with collagenase type A (1 mg/ml) and DNAase I (0.15 mg/ml) in RPMI 1640 containing 5% FCS for 2 hours at 37° C.\n(§5) Similarly, rheumatoid synovial cells spontaneously produce cytokines when cultured in vitro. […] With restricted number of human synovial cells in this sample, the optimal dose for inhibiting TNFα may have been missed."}, "IL-10": {"system": "IL-10", "assay": "human rheumatoid synovial cell IL-10 production (ELISA)", "type": "cell-based", "conditions": "for IL-10, mean: 48 hours culture", "protocol": "as §4, §5"}},
  "note": "Read-outs that look alike come from different tables or passages of the source.",
  "data": [
    {"smiles": "C=C(C)[C@@H]1CCC(C)=C[C@H]1c1c(O)cc(CCCCC)cc1O", "note": "[CBD, Cannabidiol]", "values": [
      {"measurement": "viability of Mφ", "setting": "[1]", "result": "**After 48 hr the Mφ cultured with 8 μg/ml CBD were only 70% viable"},
      {"measurement": "IL-1β", "setting": "IL-1β release; CBD 0.1 μg/ml", "result": "621 ± 82", "unit": "pg/mL"},
      {"measurement": "IL-1β", "setting": "IL-1β release; CBD 1 μg/ml", "result": "671 ± 74", "unit": "pg/mL"},
      {"measurement": "IL-1β", "setting": "IL-1β release; CBD 2.5 μg/ml", "result": "630 ± 81", "unit": "pg/mL"},
      {"measurement": "IL-1β", "setting": "IL-1β release; CBD 5 μg/ml", "result": "908 ± 99", "unit": "pg/mL"},
      {"measurement": "IL-1β", "setting": "IL-1β release; CBD 10 μg/ml", "result": "1575 ± 335", "unit": "pg/mL"},
      {"measurement": "IL-1β", "setting": "IL-1β release; CBD 20 μg/ml", "result": "2292 ± 251", "unit": "pg/mL"},
      {"measurement": "IL-1β", "setting": "IL-1β release; CBD 30 μg/ml", "result": "4158 ± 313", "unit": "pg/mL"},
      {"measurement": "effect on LPS-induced IL-1β release (in words)", "setting": "IL-1β release; higher concentrations of CBD", "result": "increased their release"},
      {"measurement": "effect on LPS-induced IL-1β release (in words)", "setting": "IL-1β release; lower concentrations of CBD (0.1 to 5 μg/ml)", "result": "significantly suppressed"},
      {"measurement": "IFNγ", "setting": "IFNγ production; CBD 0.1 μg/ml", "result": "2062 ± 316", "unit": "pg/mL"},
      {"measurement": "IFNγ", "setting": "IFNγ production; CBD 1 μg/ml", "result": "1082 ± 75", "unit": "pg/mL"},
      {"measurement": "IFNγ", "setting": "IFNγ production; CBD 2.5 μg/ml", "result": "1171 ± 138", "unit": "pg/mL"},
      {"measurement": "IFNγ", "setting": "IFNγ production; CBD 5 μg/ml", "result": "791 ± 43", "unit": "pg/mL"},
      {"measurement": "IFNγ", "setting": "IFNγ production; CBD 10 μg/ml", "result": "150 ± 43", "unit": "pg/mL"},
      {"measurement": "therapeutic effect on CIA (clinical score, paw thickness)", "setting": "[2]; 2.5 mg/kg i.p. daily until day 10", "result": "no effect at all"},
      {"measurement": "therapeutic effect on CIA (clinical score, paw thickness)", "setting": "[2]; 10 mg/kg i.p. daily until day 10", "result": "slight therapeutic effect"},
      {"measurement": "response of splenocytes to Concanavalin A (ConA) and LPS (3H-thymidine)", "setting": "[3]; BALB/C splenocytes", "result": "decreases the response"},
      {"measurement": "response of splenocytes to Concanavalin A (ConA) and LPS (3H-thymidine)", "setting": "[3]; C57BL/6 splenocytes", "result": "decreases the response"},
      {"measurement": "3H-thymidine uptake in MLR", "setting": "spleen cells", "result": "slight decrease"},
      {"measurement": "cell mediated cytotoxicity", "setting": "[4]; above approximately 1 μg/ml CBD", "result": "decrease in cytotoxicity"},
      {"measurement": "cell mediated cytotoxicity", "setting": "[4]; low concentrations of CBD", "result": "increase cytotoxicity"},
      {"measurement": "IL-8 release (in words)", "setting": "IL-8", "result": "dose-dependent inhibition"},
      {"measurement": "IL-8, mean", "setting": "IL-8; CBD 0.1 μg/ml", "result": 174, "unit": "ng/mL"},
      {"measurement": "IL-8, mean", "setting": "IL-8; CBD 1 μg/ml", "result": 183, "unit": "ng/mL"},
      {"measurement": "IL-8, mean", "setting": "IL-8; CBD 20 μg/ml", "result": 87, "unit": "ng/mL"},
      {"measurement": "IL-10 release (in words)", "setting": "IL-10", "result": "dose-dependent inhibition"},
      {"measurement": "IL-10, mean", "setting": "IL-10; CBD 0.1 μg/ml", "result": 273, "unit": "pg/mL"},
      {"measurement": "IL-10, mean", "setting": "IL-10; CBD 1 μg/ml", "result": 249, "unit": "pg/mL"},
      {"measurement": "IL-10, mean", "setting": "IL-10; CBD 20 μg/ml", "result": 52, "unit": "pg/mL"}
    ]}
  ]
}
